Data reported in US20210379033A1, “METHODS OF TREATING CANCER WITH ARYL HYDROCARBON RECEPTOR ANTAGONISTS” (Magenta Therapeutics Inc., priority 2018, published 2021).
Like-named read-outs stand apart in the source and are kept apart here.

Legend:
[1] = target: T1, aryl hydrocarbon receptor (Homo sapiens, UniProt P35869); experiment: Aryl hydrocarbon receptor-driven luciferase reporter in transiently transfected HepG2 cells (Example 3); assay type: cell-based; details: absence (FIG. 1) or presence (FIG. 2) of agonist VAF347 (80 nM), luciferase six hours after plating
T1 construct: HepG2 cells transiently transfected with the pGudLuc8.1 plasmid were thawed and 25,000 cells were plated per well; endogenous in cells; host or cells: HepG2
T1 sequence (P35869 11-848): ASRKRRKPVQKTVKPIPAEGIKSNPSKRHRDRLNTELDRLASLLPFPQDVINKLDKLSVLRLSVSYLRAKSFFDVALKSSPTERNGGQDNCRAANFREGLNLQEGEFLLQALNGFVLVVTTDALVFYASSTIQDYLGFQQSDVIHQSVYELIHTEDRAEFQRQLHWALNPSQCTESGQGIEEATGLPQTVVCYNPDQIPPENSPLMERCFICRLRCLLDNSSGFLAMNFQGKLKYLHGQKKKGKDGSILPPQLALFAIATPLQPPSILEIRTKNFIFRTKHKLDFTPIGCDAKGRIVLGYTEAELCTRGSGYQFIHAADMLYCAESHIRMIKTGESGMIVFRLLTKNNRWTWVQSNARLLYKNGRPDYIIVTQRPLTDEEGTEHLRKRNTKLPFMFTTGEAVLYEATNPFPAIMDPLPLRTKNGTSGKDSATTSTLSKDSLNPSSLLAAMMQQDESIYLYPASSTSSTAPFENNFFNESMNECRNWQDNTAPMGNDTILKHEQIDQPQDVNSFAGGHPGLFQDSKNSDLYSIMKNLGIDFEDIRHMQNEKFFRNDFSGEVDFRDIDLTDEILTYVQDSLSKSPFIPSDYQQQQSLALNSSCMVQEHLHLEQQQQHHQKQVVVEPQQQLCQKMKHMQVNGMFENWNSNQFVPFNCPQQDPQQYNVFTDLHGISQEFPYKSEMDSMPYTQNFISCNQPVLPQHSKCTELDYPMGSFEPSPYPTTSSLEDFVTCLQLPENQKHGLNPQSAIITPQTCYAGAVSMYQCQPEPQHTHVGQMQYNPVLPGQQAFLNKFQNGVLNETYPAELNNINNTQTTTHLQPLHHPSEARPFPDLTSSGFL
Description: Experimental details for this experiment are reported in Example 3, below.
To determine the ability of compounds (5) and (16) to inhibit the activity of the aryl hydrocarbon receptor and to induce the proliferation of hematopoietic stem cells, a series of HSC expansion experiments were conducted. In the first experiment, compounds (5) and (16) were assessed for their capacity to attenuate aryl hydrocarbon receptor signaling. To this end, HepG2 hepatocytes were transiently transfected with a luciferase reporter construct under the control of a promoter responsive to aryl hydrocarbon receptor signal transduction. The cells were plated at a density of 25,000 cells per well in a microtiter plate. The HepG2 cells were immediately treated with compound (5) or (16) in the absence (FIG. 1) or presence (FIG. 2) of the aryl hydrocarbon receptor agonist, VAF347 (80 nM). Luciferase activity was subsequently analyzed six hours after plating.

[2] = target: T2, aryl hydrocarbon receptor (AHR) (Homo sapiens, UniProt P35869); experiment: AHR antagonist assay: luciferase reporter in HepG2 cells transiently transfected with pGudLuc8.1; assay type: cell-based; details: HepG2 cells, 25,000 cells per well, luciferase activity 24 hours post-culture
T2 construct: HepG2 cells transiently transfected with the pGudLuc8.1 plasmid were thawed and 25,000 cells were plated per well; endogenous in cells; host or cells: HepG2
T2 sequence (P35869 11-848): T1 sequence (P35869 11-848)
Description: To determine the activity of a scale-up batch of Compound (24), individual enantiomers, and two derivatives Compound (27) and Compound (28) were evaluated for AHR antagonist activity. The compounds were compared to control AHR antagonist SR1, an additional control AHR antagonist, and stored sample of Compound (24)
Methods—HepG2 cells transiently transfected with the pGudLuc8.1 plasmid were thawed and 25,000 cells were plated per well and immediately treated the AHR agonist VAF347 (fixed at 40 nM) and/or the indicated AHR antagonists. Luciferase activity was measured 24 hours post-culture, corresponding to endogenous AHR antagonist activity (without VAF347, FIG. 8) or in the presence of VAF347 (FIG. 9). All synthesized compounds show equivalent AHR antagonist activity if not greater than SR1.

| SMILES | suppression of aryl hydrocarbon receptor activity (luciferase) [1] | EC50 ([2]; AHR agonist VAF347 fixed at 40 nM, read-out: AHR Antagonist Activity in the Presence of VAF347 EC50) | EC50 ([2]; without VAF347, read-out: Endogenous AHR Antagonist Activity EC50) |
| --- | --- | --- | --- |
| CCC(C)c1cnc2c(NCCc3c[nH]c4ccccc34)cc(-c3cncc(F)c3)cn12 (stereo not shown) [Compound (5)] | capable of suppressing aryl hydrocarbon receptor activity even in the presence of the activator VAF347 |  |  |
| CC(C)n1cnc2c(NCCc3ccc(O)cc3)nc(-c3csc4ccccc34)nc21 [SR1] |  | 193 nM | 33 nM |
| CCC(C)c1cnc2c(NCCc3c[nH]c4ccccc34)nc(-c3cncc(F)c3)cn12 (stereo not shown) [Compound (16)] | capable of suppressing aryl hydrocarbon receptor activity even in the presence of the activator VAF347 |  |  |
